This note sets out measurements from ChEMBL document CHEMBL2163261, “Anti-HIV-1 activity of resveratrol derivatives and synergistic inhibition of HIV-1 by the combination of resveratrol and decitabine” (Bioorg Med Chem Lett, 2012).

Series [1] concerns Human immunodeficiency virus 1. Put plainly: Antiviral activity against HIV1 infected in human U373-MAGI cells expressing CXCR4 assessed as inhibition of viral infection preincubated for 2 hrs prior to infection followed by compound wash out measured after 48 hrs by single round replication assay. The format is functional, organism-based. The note with it: for EC50: Human immunodeficiency virus 1, U373-MAGI.

Series [2] in a line: Cytotoxicity against human U373-MAGI cells expressing CXCR4. The format is cell-based. The settings on record: read-out: TC50 (the source's name).
Series [3] can be described thus: Selectivity index, ratio of TC50 for human U373-MAGI cells to EC50 for human U373-MAGI cells infected with HIV1. The format is toxicity, cell-based. The settings on record: read-out: Selectivity Index.
Series [4] relates to Human immunodeficiency virus 1. In words: Antiviral activity against HIV1 infected in human U373-MAGI cells expressing CXCR4 assessed as infected host cells at 6 uM preincubated for 2 hrs prior to infection followed by compound wash out measured after 48 hrs by single round replication assay. The format is functional.
In series [5] the test system is Human immunodeficiency virus 1. Put plainly: Antiviral activity against HIV1 infected in human U373-MAGI cells expressing CXCR4 assessed as frequency of viral mutagenesis at 6 uM preincubated for 2 hrs prior to infection followed by compound wash out measured after 48 hrs by flow cytometry relative to control. The format is functional.
Series [6] relates to Human immunodeficiency virus 1. Put plainly: Antiviral activity against HIV1 infected in human U373-MAGI cells expressing CXCR4 assessed as infected host cells at 70 nM preincubated for 2 hrs prior to infection followed by compound wash out measured after 48 hrs by single round replication assay. The format is functional.
Series [7] has as its system Human immunodeficiency virus 1. In words: Antiviral activity against HIV1 infected in human U373-MAGI cells expressing CXCR4 assessed as frequency of viral mutagenesis at 70 nM preincubated for 2 hrs prior to infection followed by compound wash out measured after 48 hrs by flow cytometry relative to control. The format is functional. On the technique in general: In flow cytometry, cells or beads pass a laser one at a time.

In series [8] the test system is Human immunodeficiency virus 1. Put plainly: Antiviral activity against HIV1 infected in human U373-MAGI cells expressing CXCR4 assessed as infected host cells at 30 uM preincubated for 2 hrs prior to infection followed by compound wash out measured after 48 hrs by single round replication assay. The format is functional.
The test system of series [9] is Human immunodeficiency virus 1. Put plainly: Antiviral activity against HIV1 infected in human U373-MAGI cells expressing CXCR4 assessed as frequency of viral mutagenesis at 30 uM preincubated for 2 hrs prior to infection followed by compound wash out measured after 48 hrs by flow cytometry relative to control. The format is functional.
The test system of series [10] is Human immunodeficiency virus 1. In words: Antiviral activity against HIV1 infected in human U373-MAGI cells expressing CXCR4 assessed as infected host cells at 20 uM preincubated for 2 hrs prior to infection followed by compound wash out post infection measured after 48 hrs by single round replication assay. The format is functional.
The subject of series [11] is Human immunodeficiency virus 1. In words: Antiviral activity against HIV1 infected in human U373-MAGI cells expressing CXCR4 assessed as frequency of viral mutagenesis at 20 uM preincubated for 2 hrs prior to infection followed by compound wash out measured after 48 hrs by flow cytometry relative to control. The format is functional.

Consider `Oc1ccc(-c2c(-c3cc(O)cc(O)c3)sc3ccccc23)cc1`, for which, in [1], the Activity entry was “Dose-dependent effect” and the half-maximal effective concentration (EC50) (as a rule, the midpoint of the concentration-response curve) is 34.4 µM. The CC50 in series [2] was determined as 131 µM. In addition, the selectivity ratio in [3] was 3.8.
For `Oc1ccc(-c2oc3ccccc3c2-c2cc(O)cc(O)c2)cc1` the same measures were “Dose-dependent effect”, 65.1 µM, 108 µM and 1.5.
With `O=C(/C=C/c1ccc(O)cc1)c1cc(O)cc(O)c1`, the EC50 in series [1] was more than 75 µM.
Same read-out and setting: under `Cn1c(-c2ccc(O)cc2)ccc1-c1cc(O)cc(O)c1` stands more than 75 µM.
As to `Oc1ccc(-c2cnc(-c3cc(O)cc(O)c3)nc2)cc1`, in series [1], the EC50 was more than 75 µM.
In the case of `Oc1ccc(-c2ccc(-c3cc(O)cc(O)c3)cc2)cc1`, the Activity entry in series [1] was “Dose-dependent effect”; in series [4] it was 96%. The EC50 in series [1] worked out at 8.8 µM. The CC50 in series [2] was found to be 179 µM. Besides, the selectivity ratio in [3] is 20.3. Further, in [5], the Ratio is recorded as 1.1.
On to `Oc1cc(O)cc(-c2ccc3cnccc3c2)c1`, for which, in series [1], the EC50 is more than 75 µM.
`Oc1ccc(-c2c(-c3cc(O)cc(O)c3)oc3ccccc23)cc1`: in series [1], the Activity result was “Dose-dependent effect” and the EC50 worked out at 35 µM. In addition, the CC50 in series [2] worked out at 84.8 µM. Also, in series [3], the selectivity ratio stood at 2.4.
For `Oc1ccc(-c2ncc(-c3cc(O)cc(O)c3)cn2)cc1`, the EC50 in series [1] is more than 75 µM.
As to `Nc1ncn([C@H]2C[C@H](O)[C@@H](CO)O2)c(=O)n1` [DECITABINE], in series [6], the Activity is 93%. The Ratio in series [7] is recorded as 1.26.
In the case of `Oc1ccc(-c2sc3ccccc3c2-c2cc(O)cc(O)c2)cc1`, in [1], the Activity entry is “Dose-dependent effect” and the concentration for a half-maximal effect (EC50) is 45.1 µM. Moreover, the CC50 in series [2] was determined as 118 µM. In addition, the selectivity ratio in series [3] was determined as 2.6. Further, the Activity in [8] is listed as 99%. The Ratio in series [9] is recorded as 1.08.
Take `Oc1cc(O)cc(-c2ccc3cc(O)ccc3c2)c1`: the concentration giving a half-maximal response (EC50) in series [1] was more than 75 µM.
In the case of `Oc1ccc(/C=C/c2cc(O)cc(O)c2)cc1` [RESVERATROL], in series [1], the Activity entry was “Dose-dependent effect” and the EC50 was more than 75 µM. The CC50 in [2] was more than 300 µM. Also, the Activity in series [10] stood at 91%. Besides, the Ratio in series [11] stood at 1.08.
In the case of `Oc1ccc(-c2cc(-c3cc(O)cc(O)c3)on2)cc1`, the EC50 in [1] was more than 75 µM.
Consider `Oc1cc(O)cc(/C=C/c2ccc(O)c(O)c2)c1` [PICEATANNOL], for which, in [1], the Activity result is “Dose-dependent effect” and the EC50 was determined as 21.4 µM. For the same molecule, the CC50 in series [2] is more than 400 µM. Further, in [3], the selectivity ratio is more than 18.7. The Activity in series [4] turned out to be 88%. For the same molecule, the Ratio in series [5] was 1.16.
With `Oc1cc(O)cc(-c2ccc(-c3ccncc3)cc2)c1`, in series [1], the EC50 was more than 100 µM.
On the same count and under the same terms, the value for `Oc1ccc(-n2cc(-c3cc(O)cc(O)c3)nn2)cc1` was more than 75 µM.
